Earlier results on one molecule are cited in patent US20070098654A1, “Nail whitening composition” (L'OREAL, priority 2005, published 2007).

The structures appear in SMILES notation.

For the series the following is noted: at 20° C.

Take `NC(N)=O.OO` [Carbamide peroxide]: the Solubility in water result is “about 500 g/l”.
